Assay results: patent US20240368153A1, “Aminopyridine-based MTA-Cooperative PRMT5 Inhibitors” (Mirati Therapeutics, Inc., priority 2021, published 2024)

Target: PRMT5/MEP50 complex (Homo sapiens (Human), UniProt O14744)
Test: PRMT5:MEP50 HotSpot Assay
Assay type: biochemical
Details: read-out: IC50 + 2 μM MTA, full-length histone H2A, presence of 2 μM MTA
Experimental: The assay uses recombinant full-length histone H2A as the PRMT5 substrate. Enzymatic transfer of the tritiated methyl group from S-adenosyl-L-[methyl-3H]methionine to the histone H2A protein generated a radiolabeled histone […] in a scintillation counter to determine the activity of PRMT5 enzyme in the presence and absence of compound. […] Briefly, compounds of the present invention were solubilized in 100% DMSO at a highest concentration of 10 mM. […] Control samples lacking compound, PRMT5/MEP50 complex or various reaction components also were prepared and processed in parallel with compound test samples. SAH was used as a positive control for assay validation. To measure PRMT5 inhibitory activity. 1 nM PRMT5/MEP50 complex (Reaction Biology Corporation) was preincubated with test compound in assay buffer containing 5 μM full-length histone H2A for 20 min at room temperature. The enzymatic reaction was initiated by adding 1 μM tritiated S-adenosyl methionine (final concentration) and the reaction was allowed to proceed for 60 min. The reaction was stopped and transferred to filter paper for detection. The amount of tritiated H2A in each sample was determined using a scintillation counter.

Chain of PRMT5/MEP50 complex (O14744 whole entry): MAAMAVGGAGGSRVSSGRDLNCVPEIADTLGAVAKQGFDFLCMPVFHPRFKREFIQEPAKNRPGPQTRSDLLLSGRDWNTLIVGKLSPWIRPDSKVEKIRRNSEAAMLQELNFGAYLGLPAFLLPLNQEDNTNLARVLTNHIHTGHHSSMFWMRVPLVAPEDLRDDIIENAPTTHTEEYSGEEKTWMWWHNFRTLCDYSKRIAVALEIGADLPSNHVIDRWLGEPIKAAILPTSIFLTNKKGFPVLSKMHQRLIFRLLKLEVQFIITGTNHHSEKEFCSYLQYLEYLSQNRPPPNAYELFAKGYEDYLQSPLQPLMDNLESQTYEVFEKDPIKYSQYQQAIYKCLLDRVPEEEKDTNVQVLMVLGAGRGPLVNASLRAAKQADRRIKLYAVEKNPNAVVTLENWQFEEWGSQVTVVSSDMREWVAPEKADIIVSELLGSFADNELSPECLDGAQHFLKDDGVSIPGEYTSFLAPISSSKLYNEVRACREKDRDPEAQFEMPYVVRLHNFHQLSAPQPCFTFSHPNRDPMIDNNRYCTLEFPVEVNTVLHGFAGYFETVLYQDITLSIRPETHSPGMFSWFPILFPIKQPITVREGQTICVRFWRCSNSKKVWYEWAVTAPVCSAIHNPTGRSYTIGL
Chain of PRMT5/MEP50 complex (Q9BQA1 whole entry partner): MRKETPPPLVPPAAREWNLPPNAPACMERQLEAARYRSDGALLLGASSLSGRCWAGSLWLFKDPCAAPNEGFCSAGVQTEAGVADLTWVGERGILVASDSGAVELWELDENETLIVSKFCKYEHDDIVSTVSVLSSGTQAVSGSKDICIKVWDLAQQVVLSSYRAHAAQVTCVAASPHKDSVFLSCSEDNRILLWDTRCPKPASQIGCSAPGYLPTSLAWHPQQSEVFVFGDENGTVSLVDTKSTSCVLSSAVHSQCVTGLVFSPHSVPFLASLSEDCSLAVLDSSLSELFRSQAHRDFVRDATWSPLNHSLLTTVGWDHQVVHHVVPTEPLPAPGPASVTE

IC50 | Compound
10.3 µM | Cc1cc2[nH]c(C(=O)N(Cc3ccc(C(F)(F)F)cn3)[C@H]3CCCc4nccnc43)cc2nc1N [Example 10-3, (S)-5-amino-6-methyl-N-(5,6,7,8-tetrahydroquinoxalin-5-yl)-N-((5-(trifluoromethyl)pyridin-2-yl)methyl)-1H-pyrrolo[3,2-b]pyridine-2-carboxamide]
0.925 µM | Cc1cc2ncc(C(=O)N(Cc3ccc(C(F)(F)F)cn3)[C@@H]3CCCc4nccnc43)cc2nc1N [Example 10-6, (R)-6-amino-7-methyl-N-(5,6,7,8-tetrahydroquinoxalin-5-yl)-N-((5-(trifluoromethyl)pyridin-2-yl)methyl)-1,5-naphthyridine-3-carboxamide]
14.7 µM | Cc1cc2ncc(C(=O)N(Cc3ccc(C(F)(F)F)cn3)[C@H]3CCCc4nccnc43)cc2nc1N [Example 10-5, (S)-6-amino-7-methyl-N-(5,6,7,8-tetrahydroquinoxalin-5-yl)-N-((5-(trifluoromethyl)pyridin-2-yl)methyl)-1,5-naphthyridine-3-carboxamide]
0.379 µM | Cc1cc2[nH]c(C(=O)N(Cc3ccc(C(F)(F)F)cn3)C3CCCc4nccnc43)cc2nc1N (stereo in doubt) [Example 10-4, (R)-5-amino-6-methyl-N-(5,6,7,8-tetrahydroquinoxalin-5-yl)-N-((5-(trifluoromethyl)pyridin-2-yl)methyl)-1H-pyrrolo[3,2-b]pyridine-2-carboxamide]

Second part, the compound before the results:

Compound | IC50
Cc1cc2ncc(C(=O)N(Cc3ccc(Br)cn3)[C@@H](C)c3ncccn3)cc2nc1N [Example 10-7, (S)-6-amino-N-((5-bromopyridin-2-yl)methyl)-7-methyl-N-(1-(pyrimidin-2-yl)ethyl)-1,5-naphthyridine-3-carboxamide] | 16.2 µM
Cc1cc2ncc(C(=O)N(Cc3ccc(Br)cn3)[C@H](C)c3ncccn3)cc2nc1N [Example 10-8, (R)-6-amino-N-((5-bromopyridin-2-yl)methyl)-7-methyl-N-(1-(pyrimidin-2-yl)ethyl)-1,5-naphthyridine-3-carboxamide] | 0.0602 µM
Cc1cc(N)nc2cc(C(=O)N(Cc3ccc(Br)cn3)[C@@H](C)c3ncccn3)cnc12 [Example 10-11, 6-amino-N-[(5-bromo-2-pyridyl)methyl]-8-methyl-N-[(1S)-1-pyrimidin-2-ylethyl]-1,5-naphthyridine-3-carboxamide] | 10.4 µM
